Measured values from US9353090B2, “Heterocyclic carboxylic acids as activators of soluble guanylate cyclase” (Boehringer Ingelheim International GmbH, priority 2014, dated 2016).
≈ marks a conversion by molar mass, not a printed value.

Legend:
[1] = Human liver microsome (HLM) metabolic stability assay; assay type: in vitro ADME; conditions: human liver microsomes
Procedure, shortened: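 Remaining parent measured by LC/MS/MS (ESI, MRM) at 5, 15, 30 and 60 min relative to 0 min. Incubation: 1 uM compound, HLMs, NADPH-started, 37° C., 60 min total, single replicate. Slope of ln(% remaining) gives t1/2 = 0.693/slope, then CLint, CLh and % Qh.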

[2] = physchem; conditions: kinetic from dmso stock
Description: Solubility is measured by the following method.
100 uL, 10 mM DMSO stock solution of each compound is prepared in a 96 well plate format. The experiment is done in single determination at 3 pH values (2.2, 4.5 and 6.8). For each pH and one reference, 40 uL of each compound is needed.
McIlvaine pH 2.2: To 2.076 g citric acid monohydrate and 0.043 g Na2HPO4×2H2O add 100 ml deionized water
McIlvaine pH 4.5: To 1.166 g citric acid monohydrate and 1.585 g Na2HPO4×2H2O add 100 ml deionized water
McIlvaine pH 6.8: To 0.476 g citric acid monohydrate and 2.753 g Na2HPO4×2H2O add 100 ml deionized water
With a suitable liquid handling device (Multipette® or a liquid handler) 390 uL of each buffer solution and 10 uL of compound is added to each well of a 96 deep well plate. The plates are covered firmly and shaken for 24 h on an over head shaker (at 54 RPM) at room temperature. The DMSO content in the final buffer is 2.5% v/v.
After 24 h the plates are centrifuged to remove droplets on the lid before opening (for ˜5 min at 2500 RPM).
The filtration is done under vacuum with Millipore 96 well filter plate. Filtrate is collected in a deep well plate and transferred to a suitable plate for UPLC analysis.
The reference plate is prepared by adding 10 uL of compound to 390 uL of 50:50 acetonitrile/water in a 96 deep well plate and transferred to a suitable plate for UPLC analysis. Wells are checked visually for precipitation, any presence noted under comments in reported results.
The samples are measured with UPLC-UV using the chromatographic method described below.
Waters Empower®2 software is used for generating Sample Sets (according to the plate layout), Sample Set Methods and Instrument Methods.
One Sample Set comprises the methods for three 96 well plates (one reference plate and two sample plates, and includes one Sample Set Method and one Instrument Method).
Data Processing and Analysis
The UV chromatograms collected at 254 nm are integrated and processed.
It is assumed that the compound is completely dissolved in the reference solution (50:50 acetonitrile/water)

[3] = target: human soluble guanylate cyclase alpha 1 and beta 1 subunits (sGC) (Homo sapiens (Human), UniProt Q02108+Q02153); experiment: sGC cellular activator assay (cGMP, HTRF), in the presence and absence of 50% human serum; assay type: cell-based; conditions: CHO cells stably expressing human sGC alpha 1/beta 1, preincubated with 40 microM ODQ; cGMP by HTRF; Table 2 does not state whether with or without 50% human serum
Procedure, shortened: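 First, CHO-sGC (human α1β1) cells get 1 h ODQ at 40 microM with IBMX and 0.1% BSA. Finally, cGMP is quantified by HTRF and EC50 computed.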

[4] = pH 2.2, aqueous buffer, Solubility (pH 2.2)
[5] = pH 4.5, aqueous buffer, Solubility (pH 4.5)
[6] = pH 6.8, aqueous buffer, Solubility (pH 6.8)

human soluble guanylate cyclase alpha 1 and beta 1 subunits (sGC), sequence (Q02108 whole entry partner): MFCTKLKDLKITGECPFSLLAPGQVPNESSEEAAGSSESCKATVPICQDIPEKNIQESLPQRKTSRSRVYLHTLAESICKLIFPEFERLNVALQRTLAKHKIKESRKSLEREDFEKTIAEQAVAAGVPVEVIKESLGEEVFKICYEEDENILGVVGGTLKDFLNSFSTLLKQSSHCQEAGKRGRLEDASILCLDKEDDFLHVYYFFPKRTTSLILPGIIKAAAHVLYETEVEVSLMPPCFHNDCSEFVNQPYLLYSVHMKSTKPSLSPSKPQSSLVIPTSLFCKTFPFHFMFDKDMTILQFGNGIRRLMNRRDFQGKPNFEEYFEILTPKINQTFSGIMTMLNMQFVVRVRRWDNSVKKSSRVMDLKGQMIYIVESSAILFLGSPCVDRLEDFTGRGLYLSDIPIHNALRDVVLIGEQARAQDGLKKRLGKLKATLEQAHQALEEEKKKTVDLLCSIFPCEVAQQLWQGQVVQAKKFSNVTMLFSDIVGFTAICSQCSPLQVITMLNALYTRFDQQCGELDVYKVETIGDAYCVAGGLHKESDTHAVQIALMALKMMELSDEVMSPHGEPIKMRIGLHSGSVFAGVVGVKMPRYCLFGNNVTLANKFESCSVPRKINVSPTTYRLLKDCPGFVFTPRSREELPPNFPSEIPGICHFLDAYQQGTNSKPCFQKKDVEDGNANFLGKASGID
human soluble guanylate cyclase alpha 1 and beta 1 subunits (sGC), sequence (Q02153 whole entry): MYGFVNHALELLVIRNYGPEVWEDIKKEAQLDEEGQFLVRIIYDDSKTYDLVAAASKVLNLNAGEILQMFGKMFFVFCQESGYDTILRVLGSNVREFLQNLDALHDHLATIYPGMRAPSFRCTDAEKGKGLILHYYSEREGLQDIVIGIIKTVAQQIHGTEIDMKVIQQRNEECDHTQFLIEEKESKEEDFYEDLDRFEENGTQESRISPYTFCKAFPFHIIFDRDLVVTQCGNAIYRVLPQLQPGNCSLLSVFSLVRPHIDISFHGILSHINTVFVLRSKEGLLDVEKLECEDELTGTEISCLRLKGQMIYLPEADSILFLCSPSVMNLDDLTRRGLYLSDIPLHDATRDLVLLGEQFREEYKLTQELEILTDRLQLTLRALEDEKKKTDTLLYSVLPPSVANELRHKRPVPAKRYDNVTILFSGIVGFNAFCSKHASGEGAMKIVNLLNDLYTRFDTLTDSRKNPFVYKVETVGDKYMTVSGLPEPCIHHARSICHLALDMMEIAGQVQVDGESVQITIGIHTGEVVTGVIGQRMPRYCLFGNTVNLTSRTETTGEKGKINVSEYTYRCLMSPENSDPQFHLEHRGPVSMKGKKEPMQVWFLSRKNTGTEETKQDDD

Compound	Metabolic stability (Qh %), % hepatic blood flow [1] [%]	solubility at 24 h [2, 4] [µg/mL]	solubility at 24 h [2, 5] [µg/mL]	solubility at 24 h [2, 6] [µg/mL]	EC50 [3] [nM]
COC[C@H]1N(c2cccc(-c3cccc(C)c3OCc3cc(C)c4c(c3C)CCN(C3CCOCC3)C4)n2)C[C@@H]2C[C@@]21C(=O)O [Compound 215]	<24	143 (≈ 233 µM)	135 (≈ 221 µM)	129 (≈ 211 µM)	10
COC[C@H]1N(c2cccc(-c3cccc(C)c3OCc3cc(F)c4c(c3)CCN(C3CCOCC3)C4)n2)C[C@@H]2C[C@@]21C(=O)O [Compound 216]	39	144 (≈ 240 µM)	139 (≈ 231 µM)	134 (≈ 223 µM)	14
COC[C@H]1N(c2cccc(-c3cccc(C)c3OCc3cc(C#N)c4c(c3)CCN(C3CCOCC3)C4)n2)C[C@@H]2C[C@@]21C(=O)O [Compound 217]	44	167 (≈ 274 µM)	162 (≈ 266 µM)	158 (≈ 259 µM)	40
COC[C@H]1N(c2cccc(-c3cc(C)ccc3OCc3ccc4c(c3C)CCN(C3CCOCC3)C4)n2)C[C@@H]2C[C@@]21C(=O)O [Compound 218]	<24	144 (≈ 241 µM)	139 (≈ 233 µM)	134 (≈ 224 µM)	81
COC[C@H]1N(c2cccc(-c3cc(C)ccc3OCc3cc(C)c4c(c3)CCN(C3CCOCC3)C4)n2)C[C@@H]2C[C@@]21C(=O)O [Compound 219]	<24	146 (≈ 245 µM)	142 (≈ 238 µM)	137 (≈ 229 µM)	263
COC[C@H]1N(c2cccc(-c3cccc(C(F)(F)F)c3OCc3cc(C)c4c(c3)CCN(C3CCOCC3)C4)n2)C[C@@H]2C[C@@]21C(=O)O [Compound 220]	34	167 (≈ 256 µM)	136 (≈ 209 µM)	133 (≈ 203 µM)	9
COC[C@H]1N(c2cccc(-c3cccc(Cl)c3OCc3cc(C)c4c(c3)CCN(C3CCOCC3)C4)n2)C[C@@H]2C[C@@]21C(=O)O [Compound 221]	<24	155 (≈ 251 µM)	144 (≈ 233 µM)	132 (≈ 213 µM)	12
COC[C@H]1N(c2cccc(-c3cccc(C)c3OCc3cc(C)c4c(c3)CN(C3CCOCC3)C4)n2)C[C@@H]2C[C@@]21C(=O)O [Compound 222]	<24	132 (≈ 227 µM)	130 (≈ 222 µM)	119 (≈ 203 µM)	23
COC[C@H]1N(c2cccc(-c3cccc(C)c3OCc3ccc4c(c3C)CN(C3CCOCC3)C4)n2)C[C@@H]2C[C@@]21C(=O)O [Compound 223]	<24	145 (≈ 248 µM)	140 (≈ 239 µM)	132 (≈ 226 µM)	23
COC[C@H]1N(c2cccc(-c3cccc(C)c3OCc3ccc4c(c3)CN(C3CCOCC3)CC4)n2)C[C@@H]2C[C@@]21C(=O)O [Compound 224]	31	150 (≈ 257 µM)	145 (≈ 249 µM)	136 (≈ 233 µM)	51
COC[C@H]1N(c2cccc(-c3cccc(C(F)(F)F)c3OCc3cc(C)c4c(c3)CCN(C3COC3)C4)n2)C[C@@H]2C[C@@]21C(=O)O [Compound 227]	30	142 (≈ 228 µM)	128 (≈ 205 µM)	138 (≈ 221 µM)	9
CCO[C@@H]1CN(c2nc(-c3cccc(C)c3OCc3cc4c(c(OC)c3)CN(C3CCOCC3)CC4)cs2)CC[C@@H]1C(=O)O [Compound 228]	<24	148 (≈ 239 µM)	114 (≈ 183 µM)	107 (≈ 172 µM)	6
CCO[C@@H]1CN(c2cccc(-c3cccc(C)c3OCc3cc4c(c(OC)c3)CN(C3CCOCC3)CC4)n2)CC[C@@H]1C(=O)O [Compound 230]	83	131 (≈ 213 µM)	128 (≈ 209 µM)	120 (≈ 194 µM)	6
CCO[C@@H]1CN(c2cccc(-c3cc(C)ccc3OCc3cc4c(c(OC)c3)CN(C3CCOCC3)CC4)n2)CC[C@@H]1C(=O)O [Compound 231]	58	126 (≈ 205 µM)	126 (≈ 205 µM)	121 (≈ 196 µM)	13
CCO[C@H]1CN(c2nc(-c3cccc(C)c3OCc3cc4c(c(OC)c3)CN(C3CCOCC3)CC4)cs2)CC[C@H]1C(=O)O [Compound 232]	<24	142 (≈ 229 µM)	131 (≈ 211 µM)	131 (≈ 211 µM)	330
CCO[C@H]1CN(c2nc(-c3cc(C)ccc3OCc3cc4c(c(OC)c3)CN(C3CCOCC3)CC4)cs2)CC[C@H]1C(=O)O [Compound 233]	<24	135 (≈ 217 µM)	124 (≈ 200 µM)	122 (≈ 197 µM)	190
CCO[C@H]1CN(c2cccc(-c3cccc(C)c3OCc3cc4c(c(OC)c3)CN(C3CCOCC3)CC4)n2)CC[C@H]1C(=O)O [Compound 234]	55	128 (≈ 207 µM)	124 (≈ 201 µM)	117 (≈ 190 µM)	257
CCO[C@H]1CN(c2cccc(-c3cc(C)ccc3OCc3cc4c(c(OC)c3)CN(C3CCOCC3)CC4)n2)CC[C@H]1C(=O)O [Compound 235]	50	128 (≈ 208 µM)	127 (≈ 206 µM)	119 (≈ 193 µM)	680
Cc1ccc(OCc2cc(C)c3c(c2)CCN(C2CCOCC2)C3)c(-c2csc(N3CC[C@H](C(=O)O)[C@H](C)C3)n2)c1 [Compound 236]	<24	141 (≈ 245 µM)	131 (≈ 228 µM)	129 (≈ 225 µM)	66
COC[C@H]1N(c2nccc(-c3cccc(C)c3OCc3cc(C)c4c(c3)CCN(C3CCOCC3)C4)n2)CC2C[C@@]21C(=O)O (stereo partly drawn) [Compound 237]	<24	156 (≈ 260 µM)	136 (≈ 227 µM)	143 (≈ 238 µM)	42

Further lines, results first:

Metabolic stability (Qh %), % hepatic blood flow [1] [%]	solubility at 24 h [2, 4] [µg/mL]	solubility at 24 h [2, 5] [µg/mL]	solubility at 24 h [2, 6] [µg/mL]	EC50 [3] [nM]	Compound
25	136 (≈ 222 µM)	135 (≈ 220 µM)	129 (≈ 211 µM)	5	COC[C@H]1N(c2cccc(-c3cccc(C)c3OCc3ccc4c(c3)[C@@H](C)CN(C3CCOCC3)CC4)n2)C[C@@H]2C[C@@]21C(=O)O [Compound 225]
<24	145 (≈ 237 µM)	142 (≈ 231 µM)	134 (≈ 219 µM)	6	COC[C@H]1N(c2cccc(-c3cccc(C)c3OCc3ccc4c(c3)[C@H](C)CN(C3CCOCC3)CC4)n2)C[C@@H]2C[C@@]21C(=O)O [Compound 226]
<24	122 (≈ 196 µM)	116 (≈ 187 µM)	114 (≈ 184 µM)	4	CCO[C@@H]1CN(c2nc(-c3cc(C)ccc3OCc3cc4c(c(OC)c3)CN(C3CCOCC3)CC4)cs2)CC[C@@H]1C(=O)O [Compound 229]
<24	112 (≈ 183 µM)	109 (≈ 179 µM)	109 (≈ 178 µM)	4	CCO[C@@H]1CN(c2nc(-c3cccc(C)c3OCc3cc(F)c4c(c3)CCN(C3CCOCC3)C4)cs2)CC[C@@H]1C(=O)O [Compound 238]
87	126 (≈ 205 µM)	123 (≈ 200 µM)	117 (≈ 191 µM)	5	CCO[C@@H]1CN(c2cccc(-c3cccc(C)c3OCc3ccc4c(c3C)CCN(C3CCOCC3)CC4)n2)CC[C@@H]1C(=O)O [Compound 239]
73	123 (≈ 200 µM)	118 (≈ 193 µM)	117 (≈ 190 µM)	5	CCO[C@@H]1CN(c2cccc(-c3cc(C)ccc3OCc3ccc4c(c3C)CCN(C3CCOCC3)CC4)n2)CC[C@@H]1C(=O)O [Compound 240]
42.5	129 (≈ 207 µM)	98.5 (≈ 158 µM)	92.2 (≈ 148 µM)	2	CCO[C@@H]1CN(c2nc(-c3cccc(C)c3OCc3cc(C)c4c(c3F)CCN(C3CCOCC3)C4)cs2)CC[C@@H]1C(=O)O [Compound 241]
<24	126 (≈ 206 µM)	116 (≈ 191 µM)	115 (≈ 189 µM)	4	CO[C@H]1CN(c2nc(-c3cccc(C)c3OCc3cc(C)c4c(c3F)CCN(C3CCOCC3)C4)cs2)CC[C@H]1C(=O)O [Compound 242]
<24	131 (≈ 212 µM)	124 (≈ 201 µM)	107 (≈ 174 µM)	3	COC[C@H]1N(c2cccc(-c3cccc(C)c3OCc3cc(F)c4c(c3)CCN(C3CCOCC3)CC4)n2)C[C@@H]2C[C@@]21C(=O)O [Compound 243]
<24	118 (≈ 193 µM)	109 (≈ 178 µM)	107 (≈ 176 µM)	4	CO[C@@H]1CN(c2nc(-c3cccc(C)c3OCc3cc(F)c4c(c3)CCN(C3CCOCC3)CC4)cs2)CC[C@@H]1C(=O)O [Compound 244]
